Measurements: patent publication US20180214393A1, “METHODS FOR TREATING CANCER” (RADIUS PHARMACEUTICALS, INC., priority 2015, published 2018)
“Also recorded” adds a separate entry of the source. Counter-ions that a name gives are not always drawn.

Experiments:
[1] = Phase 1 dose escalation study in healthy postmenopausal women, treatment related AEs, oral daily for 7 days; type: in vivo
Protocol: The subjects were 40-75 years old with BMI of 18.0-30 kg/m^2. Subjects having evidence of clinically relevant pathology, increased risk of stroke or of history venous thromboembolic events, or use of concomitant medication less than 14 days prior to admission to clinical research center (paracetamol allowed up to 3 days prior) were excluded.
The subjects were treated with placebo or at least one oral dose daily after a light breakfast for 7 days at dose levels of 200 mg, 500 mg, 750 mg and 1000 mg, respectively.

MCF-7 xenograft = assay: Proliferation marker Ki67 in MCF-7 xenograft tumors; type: in vivo, mice; details: 90 mg/kg, 8 hours after single dose and 24 hours after 4th dose
[2] = tested on: PR expression in PDx-5 models; assay: PR expression in PDx-5 tumors; type: in vivo, mice; details: RAD1901 60 and 120 mg/kg q.d. p.o.; fulvestrant
Text: Tumors were harvested at the indicated time points after the last day of dosing (unless otherwise specified), homogenized in RIPA buffer with protease and phosphatase inhibitors using a Tissuelyser (Qiagen). Equal amounts of protein were separated by MW, transferred to nitrocellulose membranes and blotted with the following antibody as described in the Materials and methods section: progesterone receptor (PR, Cell Signaling Technologies; 3153).
Bands were quantified using 1D Quant software (GE), and PR IHC Allred scores obtained from PDx-5 models as described in Example I(A)(iii)(1) are shown in FIG. 17.

SMILES: CCNCCc1ccc(CN(CC)c2cc(OC)ccc2[C@@H]2CCc3cc(O)ccc3C2)cc1 [RAD1901, (6R)-6-(2-(N-(4-(2-(ethylamino)ethyl)benzyl)-N-ethylamino)-4-methoxyphenyl)-5,6,7,8-tetrahydronaphthalen-2-ol dihydrochloride]
- Abdominal discomfort AE, % ([1]; 200 mg Gr1): (20) %
- Abdominal distension AE, % ([1]; 200 mg Gr1): (7) %
- Abdominal pain AE, % ([1]; 200 mg Gr1): (13) %
- Dizziness AE, % ([1]; 200 mg Gr1): (7) %
- Dyspepsia AE, % ([1]; 200 mg Gr1): (20) %
- Flatulance AE, % ([1]; 200 mg Gr1): (13) %
- Headache AE, % ([1]; 200 mg Gr1): (20) %
- Hiccups AE, % ([1]; 200 mg Gr1): (7) %
- Hot flush AE, % ([1]; 200 mg Gr1): (13) %
- Myalgia AE, % ([1]; 200 mg Gr1): (13) %
- Nausea AE, % ([1]; 200 mg Gr1): (33) %
- Odynophagia AE, % ([1]; 200 mg Gr1): (13) %
- Salivary hyper-secretion AE, % ([1]; 200 mg Gr1): (13) %
- Sensation of a foreign body AE, % ([1]; 200 mg Gr1): (13) %
- Vomiting AE, % ([1]; 200 mg Gr1): (13) %
- Abdominal distension AE, % ([1]; 200 mg Gr2): (7) %
- Abdominal pain AE, % ([1]; 200 mg Gr2): (13) %
- Myalgia AE, % ([1]; 200 mg Gr2): (7) %
- Oesophageal pain AE, % ([1]; 200 mg Gr2): (13) %
- Abdominal distension AE, % ([1]; 500 mg Gr1): (7) %
- Abdominal pain AE, % ([1]; 500 mg Gr1): (21) %
- Diarrhoea AE, % ([1]; 500 mg Gr1): (21) %
- Dizziness AE, % ([1]; 500 mg Gr1): (14) %
- Dyspepsia AE, % ([1]; 500 mg Gr1): (36) %
- Dysphagia AE, % ([1]; 500 mg Gr1): (7) %
- Flatulance AE, % ([1]; 500 mg Gr1): (14) %
- Headache AE, % ([1]; 500 mg Gr1): (7) %
- Hiccups AE, % ([1]; 500 mg Gr1): (29) %
- Hot flush AE, % ([1]; 500 mg Gr1): (43) %
- Nausea AE, % ([1]; 500 mg Gr1): (21) %
- Odynophagia AE, % ([1]; 500 mg Gr1): (7) %
- Oesophageal pain AE, % ([1]; 500 mg Gr1): (7) %
- Salivary hyper-secretion AE, % ([1]; 500 mg Gr1): (14) %
- Sensation of a foreign body AE, % ([1]; 500 mg Gr1): (7) %
- Vomiting AE, % ([1]; 500 mg Gr1): (7) %
- Dyspepsia AE, % ([1]; 500 mg Gr2): (14) %
- Dysphagia AE, % ([1]; 500 mg Gr2): (14) %
- Headache AE, % ([1]; 500 mg Gr2): (7) %
- Myalgia AE, % ([1]; 500 mg Gr2): (7) %
- Nausea AE, % ([1]; 500 mg Gr2): (14) %
- Odynophagia AE, % ([1]; 500 mg Gr2): (7) %
- Oesophageal pain AE, % ([1]; 500 mg Gr2): (21) %
- Vomiting AE, % ([1]; 500 mg Gr2): (36) %
- Vomiting AE, % ([1]; 500 mg Gr3): (7) %
- Abdominal discomfort AE, % ([1]; 750 mg Gr1): (13) %
- Abdominal distension AE, % ([1]; 750 mg Gr1): (13) %
- Abdominal pain AE, % ([1]; 750 mg Gr1): (13) %
- Dizziness AE, % ([1]; 750 mg Gr1): (13) %
- Dyspepsia AE, % ([1]; 750 mg Gr1): (50) %
- Dysphagia AE, % ([1]; 750 mg Gr1): (38) %
- Flatulance AE, % ([1]; 750 mg Gr1): (13) %
- Headache AE, % ([1]; 750 mg Gr1): (38) %
- Hiccups AE, % ([1]; 750 mg Gr1): (25) %
- Hot flush AE, % ([1]; 750 mg Gr1): (25) %
- Myalgia AE, % ([1]; 750 mg Gr1): (13) %
- Nausea AE, % ([1]; 750 mg Gr1): (25) %
- Oesophageal pain AE, % ([1]; 750 mg Gr1): (13) %
- Salivary hyper-secretion AE, % ([1]; 750 mg Gr1): (25) %
- Abdominal discomfort AE, % ([1]; 750 mg Gr2): (13) %
- Dysphagia AE, % ([1]; 750 mg Gr2): (13) %
- Nausea AE, % ([1]; 750 mg Gr2): (13) %
- Vomiting AE, % ([1]; 750 mg Gr2): (25) %
- Abdominal distension AE, % ([1]; 1000 mg Gr1): (29) %
- Abdominal pain AE, % ([1]; 1000 mg Gr1): (14) %
- Diarrhoea AE, % ([1]; 1000 mg Gr1): (43) %
- Dizziness AE, % ([1]; 1000 mg Gr1): (14) %
- Dyspepsia AE, % ([1]; 1000 mg Gr1): (14) %
- Headache AE, % ([1]; 1000 mg Gr1): (29) %
- Hiccups AE, % ([1]; 1000 mg Gr1): (29) %
- Hot flush AE, % ([1]; 1000 mg Gr1): (14) %
- Nausea AE, % ([1]; 1000 mg Gr1): (57) %
- Odynophagia AE, % ([1]; 1000 mg Gr1): (14) %
- Oesophageal pain AE, % ([1]; 1000 mg Gr1): (14) %
- Salivary hyper-secretion AE, % ([1]; 1000 mg Gr1): (29) %
- Sensation of a foreign body AE, % ([1]; 1000 mg Gr1): (57) %
- Abdominal pain AE, % ([1]; 1000 mg Gr2): (14) %
- Diarrhoea AE, % ([1]; 1000 mg Gr2): (14) %
- Dyspepsia AE, % ([1]; 1000 mg Gr2): (14) %
- Nausea AE, % ([1]; 1000 mg Gr2): (29) %
- Odynophagia AE, % ([1]; 1000 mg Gr2): (14) %
- Oesophageal pain AE, % ([1]; 1000 mg Gr2): (14) %
- Vomiting AE, % ([1]; 1000 mg Gr2): (43) %
- Oesophageal pain AE, % ([1]; 1000 mg Gr3): (14) %
- dose limiting toxicities ([1]; 200-1000 mg, 7 days, dihydrochloride): No dose limiting toxicities were observed; also recorded: No dose limiting toxicites (DLT) were observed
- Abdominal discomfort AE, % ([1]; Total Active Gr1): (9) %
- Abdominal distension AE, % ([1]; Total Active Gr1): (11) %
- Abdominal pain AE, % ([1]; Total Active Gr1): (16) %
- Diarrhoea AE, % ([1]; Total Active Gr1): (14) %
- Dizziness AE, % ([1]; Total Active Gr1): (11) %
- Dyspepsia AE, % ([1]; Total Active Gr1): (30) %
- Dysphagia AE, % ([1]; Total Active Gr1): (9) %
- Flatulance AE, % ([1]; Total Active Gr1): (11) %
- Headache AE, % ([1]; Total Active Gr1): (20) %
- Hiccups AE, % ([1]; Total Active Gr1): (20) %
- Hot flush AE, % ([1]; Total Active Gr1): (25) %
- Myalgia AE, % ([1]; Total Active Gr1): (7) %
- Nausea AE, % ([1]; Total Active Gr1): (32) %
- Odynophagia AE, % ([1]; Total Active Gr1): (9) %
- Oesophageal pain AE, % ([1]; Total Active Gr1): (7) %
- Salivary hyper-secretion AE, % ([1]; Total Active Gr1): (18) %
- Sensation of a foreign body AE, % ([1]; Total Active Gr1): (16) %
- Vomiting AE, % ([1]; Total Active Gr1): (7) %
- Abdominal discomfort AE, % ([1]; Total Active Gr2): (2) %
- Abdominal distension AE, % ([1]; Total Active Gr2): (2) %
- Abdominal pain AE, % ([1]; Total Active Gr2): (7) %
- Diarrhoea AE, % ([1]; Total Active Gr2): (2) %
- Dyspepsia AE, % ([1]; Total Active Gr2): (7) %
- Dysphagia AE, % ([1]; Total Active Gr2): (7) %
- Headache AE, % ([1]; Total Active Gr2): (2) %
- Myalgia AE, % ([1]; Total Active Gr2): (5) %
- Nausea AE, % ([1]; Total Active Gr2): (11) %
- Odynophagia AE, % ([1]; Total Active Gr2): (5) %
- Oesophageal pain AE, % ([1]; Total Active Gr2): (14) %
- Vomiting AE, % ([1]; Total Active Gr2): (23) %
- Oesophageal pain AE, % ([1]; Total Active Gr3): (2) %
- Vomiting AE, % ([1]; Total Active Gr3): (2) %
- Abdominal discomfort AE, % ([1]; Total TEAE All): (11) %
- Abdominal distension AE, % ([1]; Total TEAE All): (14) %
- Abdominal pain AE, % ([1]; Total TEAE All): (23) %
- Diarrhoea AE, % ([1]; Total TEAE All): (16) %
- Dizziness AE, % ([1]; Total TEAE All): (11) %
- Dyspepsia AE, % ([1]; Total TEAE All): (36) %
- Dysphagia AE, % ([1]; Total TEAE All): (16) %
- Flatulance AE, % ([1]; Total TEAE All): (11) %
- Headache AE, % ([1]; Total TEAE All): (23) %
- Hiccups AE, % ([1]; Total TEAE All): (20) %
- Hot flush AE, % ([1]; Total TEAE All): (25) %
- Myalgia AE, % ([1]; Total TEAE All): (11) %
- Nausea AE, % ([1]; Total TEAE All): (43) %
- Odynophagia AE, % ([1]; Total TEAE All): (14) %
- Oesophageal pain AE, % ([1]; Total TEAE All): (23) %
- Salivary hyper-secretion AE, % ([1]; Total TEAE All): (18) %
- Sensation of a foreign body AE, % ([1]; Total TEAE All): (16) %
- Vomiting AE, % ([1]; Total TEAE All): (32) %
- proliferation marker Ki67 (MCF-7 xenograft): rapid decrease of the proliferation marker Ki67
- PR expression [2]: showed efficacy
